This is an account of results in BindingDB's records for doi:10.1021/jm031106i (Linkoping University, 2004).

A word on the Ki: it is a measure of affinity in units of concentration, obtained from inhibition or displacement. Read a low Ki as a stronger hold on the target.

Common to all, as to test: Enzyme Inhibition Measurements
One experiment addresses Plasmepsin I (Plasmodium falciparum, UniProt P39898). How it is done:
(§1) Enzyme activities were assayed by monitoring the hydrolysis of substrate in the presence or absence of inhibitor compounds. The hydrolysis was recorded as the increase in fluorescence intensity over a 10 min time period. IC50 values were obtained by assuming competitive inhibition and fitting the dose response data to the equation (Vi/V0) =1/ (1 + [I]/IC50)). The Ki was calculated by using Ki = IC50/ (1 + [S]/Km), and a Km value determined according to Michaelis-Menten.

The target of a further experiment is Plasmepsin II (Plasmodium falciparum (isolate HB3), UniProt P46925). Particulars: pH 4.5; 22 °C. How it is done:
as §1

Another experiment deals with Cathepsin D (Homo sapiens, UniProt P07339). How it is done: as §1
Chain of Cathepsin D (P07339 65-162 limits assumed): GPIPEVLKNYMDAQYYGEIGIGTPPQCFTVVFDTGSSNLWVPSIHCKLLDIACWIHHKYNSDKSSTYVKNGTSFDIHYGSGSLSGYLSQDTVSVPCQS
Chain of Cathepsin D (P07339 169-412 limits assumed): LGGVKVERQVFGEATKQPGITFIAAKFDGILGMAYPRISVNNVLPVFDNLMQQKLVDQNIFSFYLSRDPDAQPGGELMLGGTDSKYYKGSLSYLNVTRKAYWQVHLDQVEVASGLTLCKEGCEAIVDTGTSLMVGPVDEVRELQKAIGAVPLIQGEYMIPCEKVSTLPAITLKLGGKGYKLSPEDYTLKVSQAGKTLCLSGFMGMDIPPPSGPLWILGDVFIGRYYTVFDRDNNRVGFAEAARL

Chain of Plasmepsin II (P46925 whole entry): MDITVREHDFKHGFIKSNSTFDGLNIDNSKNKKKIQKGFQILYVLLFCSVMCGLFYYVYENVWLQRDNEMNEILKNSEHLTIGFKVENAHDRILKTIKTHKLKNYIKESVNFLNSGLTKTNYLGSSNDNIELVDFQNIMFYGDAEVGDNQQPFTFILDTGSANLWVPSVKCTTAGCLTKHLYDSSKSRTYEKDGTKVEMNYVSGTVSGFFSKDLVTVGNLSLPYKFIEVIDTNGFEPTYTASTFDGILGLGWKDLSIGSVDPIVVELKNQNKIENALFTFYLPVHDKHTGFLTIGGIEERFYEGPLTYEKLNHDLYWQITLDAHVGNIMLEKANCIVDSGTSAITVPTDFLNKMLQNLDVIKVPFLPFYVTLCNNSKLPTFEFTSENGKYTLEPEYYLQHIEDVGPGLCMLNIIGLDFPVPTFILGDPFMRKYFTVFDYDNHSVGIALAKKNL
Chain of Plasmepsin I (P39898 whole entry): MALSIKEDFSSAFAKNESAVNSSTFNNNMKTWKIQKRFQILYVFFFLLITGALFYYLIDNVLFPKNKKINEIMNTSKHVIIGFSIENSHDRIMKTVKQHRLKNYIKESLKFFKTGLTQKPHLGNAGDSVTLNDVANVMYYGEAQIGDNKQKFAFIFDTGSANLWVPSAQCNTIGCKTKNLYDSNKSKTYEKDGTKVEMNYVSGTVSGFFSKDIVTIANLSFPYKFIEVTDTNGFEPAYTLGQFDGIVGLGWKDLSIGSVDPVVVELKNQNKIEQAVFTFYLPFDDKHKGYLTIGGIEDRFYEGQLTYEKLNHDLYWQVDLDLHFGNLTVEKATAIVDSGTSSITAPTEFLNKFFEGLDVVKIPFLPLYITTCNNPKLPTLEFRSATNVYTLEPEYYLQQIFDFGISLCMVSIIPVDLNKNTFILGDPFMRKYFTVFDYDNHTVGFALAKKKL

Regarding `CC(C)[C@H](NC(=O)c1ccccn1)C(=O)N[C@@H](COCc1ccc(Br)cc1)[C@@H](O)CC(=O)NCC1CCCCC1` [(3S,4S)-5-[(4-bromophenyl)methoxy]-N-(cyclohexylmethyl)-3-hydroxy-4-[(2S)-3-methyl-2-(pyridin-2-ylformamido)butanamido]pentanamide], the Ki at Plasmepsin I was 3.9 nM; on Plasmepsin II, 41 nM; on Cathepsin D, 586 nM.
